Our source for the inhibition and IC50 values is US7615564B2, “Isoquinoline derivatives having kinasae inhibitory activity and drugs containing the same” (Kirin Beer Kabushiki Kaisha, priority 2002, dated 2009).

The subject of test [1] is Mouse-derived CCR2 overexpressing human-derived histiocyte lymphoma (U937/CCR2). In words: Leukocyte migration inhibitory activity (MCP-1 induced migration, CHEMOTAXICELL). It is filed as cell-based. The note with it: U-937, test compound concentration 10 μg/ml, MCP-1 ligand, migration 1 hr. As to the method:
Mouse-derived CCR2 overexpressing human-derived histiocyte lymphoma (U937/CCR2), was suspended in a 0.1% BSA-containing RPMI 1640 medium, to which a test compound had been added (5×10^6/ml), and the suspension was incubated for 20 min. A chemical solution (500 μl) (0.1% BSA-containing RPMI 1640 medium DMSO 1%), to which an MCP-1 ligand (1 μM) and the test compound had been added, was added to a 24-well plate. CHEMOTAXICELL was put thereon, and 200 μl of the cell suspension was added to the top layer, followed by migration under a 5% CO2 atmosphere at 37° C. for one hr. The number of cells, which had migrated to the lower chamber, was counted with a particle count analyzer (CDA-500, SYSMEX CORPORATION), and the percentage migration inhibition was calculated by the following equation: Migration inhibition (%)=(1−number of migrated cells in the presence of test compound/number of migrated cells in the absence of test compound)×100

Test [2] deals with T1, Recombinant Rho kinase (fused protein composed of bovine Rho kinase catalytic region and glutathione S-transferase) (Bos taurus, UniProt Q28021).
T1 construct: fused protein composed of bovine Rho kinase catalytic region and glutathione S-transferase; glutathione S-transferase (GST); made in house; host or cells: insect cells infected with baculovirus
Nature of the test: Rho kinase inhibitory activity (phosphorylation of S6 231-239 substrate with γ32P-ATP). The settings on record: concentration inhibiting substrate phosphorylation by 50%. In kind it is biochemical. As to the method:
This permits the substrate to be labeled with the radioisotope.
Thereafter, the substrate was adsorbed to a filter paper. ATP was washed away with a phosphoric acid solution, and the amount of the phosphorylated substrate was then measured with a liquid scintillation counter.

One may read the inhibition as the change of the read-out against control, counted positive when it falls. In general, pIC50 refers to the IC50 on a negative log10 scale, so that one unit is a factor of ten.

pIC50: −log10 of the molar value.

T1 sequence (Q28021 92-354 limits assumed): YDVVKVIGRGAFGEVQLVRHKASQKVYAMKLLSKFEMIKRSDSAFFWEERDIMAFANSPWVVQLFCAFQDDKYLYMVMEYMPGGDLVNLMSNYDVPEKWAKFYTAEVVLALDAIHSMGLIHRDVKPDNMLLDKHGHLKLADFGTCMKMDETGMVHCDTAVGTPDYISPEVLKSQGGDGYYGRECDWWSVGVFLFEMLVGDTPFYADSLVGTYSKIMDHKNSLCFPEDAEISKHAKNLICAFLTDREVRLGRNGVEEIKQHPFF

In the case of `Clc1ccccc1CN1CCC(Nc2cccc3cnccc23)C1` (stereo not drawn) [Example 1, N5-[1-(2-Chlorobenzyl)tetrahydro-1H-3-pyrrolyl]-5-isoquinolylamine], the inhibition at 10 µg/mL in test [1] worked out at 86%. The pIC50 in test [2] was 7.00. For `Clc1cccc(CN2CCC(Nc3cccc4cnccc34)C2)c1` (stereo not drawn) [Example 2, N5-[1-(3-Chlorobenzyl)tetrahydro-1H-3-pyrrolyl]-5-isoquinolylamine], the inhibition at 10 µg/mL in test [1] was determined as 90%. Further, in test [2], the pIC50 is 7.20. For `Clc1ccc(CN2CCC(Nc3cccc4cnccc34)C2)cc1` (stereo not drawn) [Example 3, N5-[1-(4-Chlorobenzyl)tetrahydro-1H-3-pyrrolyl]-5-isoquinolylamine] the same measures were 101% and 7.18. The like results for `Fc1ccc(CN2CCC(Nc3cccc4cnccc34)C2)cc1` (stereo not drawn) [Example 4, N5-[1-(4-Fluorobenzyl)tetrahydro-1H-3-pyrrolyl]-5-isoquinolylamine] were, in that order, 98% and 7.03. Regarding `Fc1cccc(F)c1CN1CCC(Nc2cccc3cnccc23)C1` (stereo not drawn) [Example 5, N5-[1-(2,6-Difluorobenzyl)tetrahydro-1H-3-pyrrolyl]-5-isoquinolylamine], in test [1], the inhibition at 10 µg/mL is 93%. Also, the pIC50 in test [2] is 7.14.

`Clc1cccc(Cl)c1CN1CCC(Nc2cccc3cnccc23)C1` (stereo not drawn) [Example 6, N5-[1-(2,6-Dichlorobenzyl)tetrahydro-1H-3-pyrrolyl]-5-isoquinolylamine]: the pIC50 in test [2] is 6.85.

For `Cc1ccc(CN2CCC(Nc3cccc4cnccc34)C2)cc1` (stereo not drawn) [Example 7, N-(5-Isoquinolyl)-N-[1-(4-methylbenzyl)tetrahydro-1H-3-pyrrolyl]amine], the inhibition at 10 µg/mL in test [1] was 103%. In addition, in test [2], the pIC50 is 7.02.

In the case of `CC(C)c1ccc(CN2CCC(Nc3cccc4cnccc34)C2)cc1` (stereo not drawn) [Example 8, N5-[1-(4-Isopropylbenzyl)tetrahydro-1H-3-pyrrolyl]-5-isoquinolylamine], the pIC50 in test [2] was 6.70.

With `O=[N+]([O-])c1ccccc1CN1CCC(Nc2cccc3cnccc23)C1` (stereo not drawn) [Example 9, N-(5-Isoquinolyl)-N-[1-(2-nitrobenzyl)tetrahydro-1H-3-pyrrolyl]amine], in test [2], the pIC50 was 6.24. In the case of `O=[N+]([O-])c1cccc(CN2CCC(Nc3cccc4cnccc34)C2)c1` (stereo not drawn) [Example 10, N-(5-Isoquinolyl)-N-[1-(3-nitrobenzyl)tetrahydro-1H-3-pyrrolyl]amine], in test [2], the pIC50 was 6.70. Same read-out and setting: as for `O=[N+]([O-])c1ccc(CN2CCC(Nc3cccc4cnccc34)C2)cc1` (stereo not drawn) [Example 11, N-(5-Isoquinolyl)-N-[1-(4-nitrobenzyl)tetrahydro-1H-3-pyrrolyl]amine], the figure is 6.18; as for `O=[N+]([O-])c1cc(Cl)ccc1CN1CCC(Nc2cccc3cnccc23)C1` (stereo not drawn) [Example 12, N5-[1-(4-Chloro-2-nitrobenzyl)tetrahydro-1H-3-pyrrolyl]-5-isoquinolylamine], 5.89; as for `c1ccc(CN2CCC(Nc3cccc4cnccc34)C2)nc1` (stereo not drawn) [Example 13, N-(5-Isoquinolyl)-N-[1-(2-pyridylmethyl)tetrahydro-1H-3-pyrrolyl]amine], 6.32.

Turning to `c1cncc(CN2CCC(Nc3cccc4cnccc34)C2)c1` (stereo not drawn) [Example 14, N-(5-Isoquinolyl)-N-[1-(3-pyridylmethyl)tetrahydro-1H-3-pyrrolyl]amine], the pIC50 in test [2] is 6.23.

Take `c1cc(NC2CCN(Cc3ccncc3)C2)c2ccncc2c1` (stereo not drawn) [Example 15, N-(5-Isoquinolyl)-N-[1-(4-pyridylmethyl)tetrahydro-1H-3-pyrrolyl]amine]: the pIC50 in test [2] is 5.96. As for `Nc1ccccc1CN1CCC(Nc2cccc3cnccc23)C1` (stereo not drawn) [Example 16, N5-[1-(2-Aminobenzyl)tetrahydro-1H-3-pyrrolyl]-5-isoquinolylamine], the inhibition at 10 µg/mL in test [1] is 99%. Further, the pIC50 in test [2] was 6.68. `Nc1ccc(CN2CCC(Nc3cccc4cnccc34)C2)cc1` (stereo not drawn) [Example 18, N5-[1-(4-Aminobenzyl)tetrahydro-1H-3-pyrrolyl]-5-isoquinolylamine]: the inhibition at 10 µg/mL in test [1] stood at 94%. Further, the pIC50 in test [2] is 6.64. The like results for `Nc1cc(Cl)ccc1CN1CCC(Nc2cccc3cnccc23)C1` (stereo not drawn) [Example 19, N5-[1-(2-Amino-4-chlorobenzyl)tetrahydro-1H-3-pyrrolyl]-5-isoquinolylamine] were, in that order, 82% and 6.62. The like results for `Clc1ccccc1CN1CCCC(Nc2cccc3cnccc23)C1` (stereo not drawn) [Example 20, N5-[1-(2-Chlorobenzyl)-3-piperidyl]-5-isoquinolylamine] were, in that order, 69% and 6.68. As for `Clc1ccc(CN2CCCC(Nc3cccc4cnccc34)C2)cc1` (stereo not drawn) [Example 22, N5-[1-(4-Chlorobenzyl)-3-piperidyl]-5-isoquinolylamine], the inhibition at 10 µg/mL in test [1] came out at 80%.

Consider `c1ccc(CN2CCCC(Nc3cccc4cnccc34)C2)cc1` (stereo not drawn) [Example 23, N-(1-Benzyl-3-piperidyl)-5-isoquinolylamine], for which the pIC50 in test [2] is 6.62. Take `Fc1cccc(F)c1CN1CCCC(Nc2cccc3cnccc23)C1` (stereo not drawn) [Example 24, N5-[1-(2,6-Difluorobenzyl)-3-piperidyl]-5-isoquinolylamine]: in test [2], the pIC50 was 6.64. In the case of `Clc1cccc(Cl)c1CN1CCCC(Nc2cccc3cnccc23)C1` (stereo not drawn) [Example 25, N5-[1-(2,6-Dichlorobenzyl)-3-piperidyl]-5-isoquinolylamine], the pIC50 in test [2] was 5.92. Still for that read-out and setting: with `Cc1ccc(CN2CCCC(Nc3cccc4cnccc34)C2)cc1` (stereo not drawn) [Example 26, N-(5-Isoquinolinyl)-N-[1-(4-methylbenzyl)-3-piperidyl]amine] the figure was 6.74; with `O=[N+]([O-])c1ccccc1CN1CCCC(Nc2cccc3cnccc23)C1` (stereo not drawn) [Example 28, N-(5-Isoquinolinyl)-N-[1-(2-nitrobenzyl)-3-piperidyl]amine], 6.24; with `O=[N+]([O-])c1cccc(CN2CCCC(Nc3cccc4cnccc34)C2)c1` (stereo not drawn) [Example 29, N-(5-Isoquinolinyl)-N-[1-(3-nitrobenzyl)-3-piperidyl]amine], 5.72. Take `O=[N+]([O-])c1ccc(CN2CCCC(Nc3cccc4cnccc34)C2)cc1` (stereo not drawn) [Example 30, N-(5-Isoquinolinyl)-N-[1-(4-nitrobenzyl)-3-piperidyl]amine]: the pIC50 in test [2] is 5.74. On the same count and under the same terms, with `O=[N+]([O-])c1cc(Cl)ccc1CN1CCCC(Nc2cccc3cnccc23)C1` (stereo not drawn) [Example 31, N5-[1-(4-Chloro-2-nitrobenzyl)-3-piperidyl]-5-isoquinolylamine] the figure was 5.64; with `c1ccc(CN2CCCC(Nc3cccc4cnccc34)C2)nc1` (stereo not drawn) [Example 32, N-(5-Isoquinolinyl)-N-[1-(2-pyridylmethyl)-3-piperidyl]amine], 5.89.

For `c1cncc(CN2CCCC(Nc3cccc4cnccc34)C2)c1` (stereo not drawn) [Example 33, N-(5-Isoquinolinyl)-N-[1-(3-pyridylmethyl)-3-piperidyl]amine], the pIC50 in test [2] is 6.00. Same read-out and setting: as for `c1cc(NC2CCCN(Cc3ccncc3)C2)c2ccncc2c1` (stereo not drawn) [Example 34, N-(5-Isoquinolinyl)-N-[1-(4-pyridylmethyl)-3-piperidyl]amine], the figure is 5.82; as for `Nc1ccccc1CN1CCCC(Nc2cccc3cnccc23)C1` (stereo not drawn) [Example 35, N5-[1-(2-Aminobenzyl)-3-piperidyl]-5-isoquinolylamine], 6.57.

For the compound `Nc1cccc(CN2CCCC(Nc3cccc4cnccc34)C2)c1` (stereo not drawn) [Example 36, N5-[1-(3-Aminobenzyl)-3-piperidyl]-5-isoquinolylamine], the pIC50 in test [2] was 6.51. As for `Nc1ccc(CN2CCCC(Nc3cccc4cnccc34)C2)cc1` (stereo not drawn) [Example 37, N5-[1-(4-Aminobenzyl)-3-piperidyl]-5-isoquinolylamine], in test [2], the pIC50 was 6.54.

`Nc1cc(Cl)ccc1CN1CCCC(Nc2cccc3cnccc23)C1` (stereo not drawn) [Example 38, N5-[1-(2-Amino-4-chlorobenzyl)-3-piperidyl]-5-isoquinolylamine]: the pIC50 in test [2] was 6.40. Same read-out and setting: with `c1c[nH]c(CN2CCCC(Nc3cccc4cnccc34)C2)c1` (stereo not drawn) [Example 39, N-(5-Isoquinolinyl)-N-[1-(1H-2-pyrrolylmethyl)-3-piperidyl]amine] the figure was 7.64; with `c1cc(NC2CCCN(Cc3cc[nH]c3)C2)c2ccncc2c1` (stereo not drawn) [Example 40, N-(5-Isoquinolinyl)-N-[1-(1H-3-pyrrolylmethyl)-3-piperidyl]amine], 6.17. The same measure, in the same setting: with `c1csc(CN2CCCC(Nc3cccc4cnccc34)C2)c1` (stereo not drawn) [Example 41, N-(5-Isoquinolinyl)-N-[1-(2-thienylmethyl)-3-piperidyl]amine] the figure was 6.72. As to `c1cc(NC2CCCN(Cc3ccsc3)C2)c2ccncc2c1` (stereo not drawn) [Example 42, N-(5-Isoquinolinyl)-N-[1-(3-thienylmethyl)-3-piperidyl]amine], in test [2], the pIC50 was 7.51. Regarding `c1coc(CN2CCCC(Nc3cccc4cnccc34)C2)c1` (stereo not drawn) [Example 43, N-[1-(2-Furylmethyl)-3-piperidyl]-N-(5-isoquinolyl)amine], the pIC50 in test [2] is 6.70. Still for that read-out and setting: with `c1cc(NC2CCCN(Cc3ccoc3)C2)c2ccncc2c1` (stereo not drawn) [Example 44, N-[1-(3-Furylmethyl)-3-piperidyl]-N-(5-isoquinolyl)amine] the figure was 6.96.
